Patent US20080200470A1, “Diaza- or Thiazadione Derivatives With Neuroprotective Activity” (Schwartz Pharma S.L, priority 2005, published 2008)
Counter-ions that a name gives are not always drawn. Marks after values point to notes of the source that are not given here.

Legend:
[1] = tested on: primary cultures of rat hippocampus; assay: Neurotoxicity due to deprivation of trophic factors (serum deprivation), MTT; assay type: cell-based; details: serum-free medium 48 hours
Description: (§1) The capacity to prevent neurotoxicity induced by hypoxia/hypoglycaemia in primary cultures of rat hippocampus (E18) was determined. […] After centrifuging at 700 g, the pellet was mechanically redispersed. The density of the cellular suspension was measured and aliquots were taken to culture on Petri dishes, previously coated with poly-lysine, using the same medium. […] Before the hypoxia, the compounds to be studied were added at variable times and concentrations.
In this case, an Eagle medium (DMEM) modified with 10% of calf serum was initially used and, after 10 days, the cultures were transferred to the DMEM culture deprived of calf serum.

[2] = tested on: primary cultures of rat hippocampus; assay: Neurotoxicity induced by hypoxia/hypoglycaemia (oxygen-glucose deprivation), MTT; assay type: cell-based; details: glucose-free medium, 2 hours 95% N2/5% CO2, MTT
Description: as §1

[3] = tested on: cerebral infarction after intraluminal occlusion of the middle cerebral artery (MCA) in rats; assay: Focal ischemic model in rats, occlusion of the middle cerebral artery; assay type: in vivo; details: rat, 40 μg/kg intravenously, 24 hours after ischemic damage

Compound | melting point [°C] | also measured
CCOc1ccccc1OCCNCCCCN1C(=O)CSC1=O (as salt: salt) [ff, 3-[4-[2-(o-Ethoxyphenoxy)ethylamino]butyl]-2,4-dioxothiazolidine] | 70 to 74 | –
CCOc1ccccc1OCCNCCCCCCCCN1C(=O)CSC1=O (as salt: salt) [hh, 3-[8-[2-(o-Ethoxyphenoxy)ethylamino]octyl]-2,4-dioxothiazolidine] | 105 to 108 | –
O=C1C2CCCCN2C(=O)N1CCCCNCc1ccc2ccccc2n1 (stereo not shown) (as salt: salt) [kk, 2-[4-[(2-Quinolyl)methylamino]butyl]-1,3-dioxoperhydroimidazo[1,5-a]pyridine] | 206 to 208 | –
O=C1C2CCCCN2C(=O)N1CCCCCCNCc1ccc2ccccc2n1 (stereo not shown) (as salt: salt) [ll, 2-[6-[(2-Quinolyl)methylamino]hexyl]-1,3-dioxoperhydroimidazo[1,5-a]pyridine] | 176 to 188 | –
O=C1c2ccccc2S(=O)(=O)N1CCCCNC[C@H]1CCc2ccccc2O1 [(−)-BAYx3702] | – | Protection (%) Serum Deprivation [1]: 31.0 ± 2.9%; Protection (%) Oxygen-glucose deprivation [2]: 77.5 ± 8.6%; Infarcted Volumen Cortical [3]: 271.2 ± 54.7* mm^3; Infarcted Volumen Subcortical [3]: 105.5 ± 9.3 mm^3; Infarcted Volumen Total [3]: 376.7 ± 57.8* mm^3
CCCN(CCC)C1CCc2cccc(O)c2C1 (stereo not shown) [Compound 8-OH-DPAT, 8-OH-DPAT] | – | Protection (%) Serum Deprivation [1]: 44.0 ± 1.4%; Protection (%) Oxygen-glucose deprivation [2]: 54.0 ± 3.5%
(±)-BAYx3702 | – | Protection (%) Serum Deprivation [1]: 25.9 ± 2.5%

More lines, main results first:

melting point [°C] | Compound | also measured
125 to 126 | O=C1C2CCCN2C(=O)N1CCCCNCc1ccc2ccccc2n1 (stereo not shown) | –
140 to 143 | O=C1C2CCCN2C(=O)N1CCCCNCCOc1cccc(Br)c1 (stereo not shown) (as salt: salt) | –
115 to 118 | CCc1ccccc1OCCNCCCCN1C(=O)C2CCCN2C1=O (stereo not shown) (as salt: salt) | –
98 to 99 | O=C1C2CCCN2C(=O)N1CCCCNCCOc1ccccc1Br (stereo not shown) (as salt: salt) [o, 2-[4-[2-(o-Bromophenoxy)ethylamino]butyl]-1,3-dioxoperhydropyrrolo[1,2-c]imidazole] | –
